# Values joined by “and” are separate entries in the source; they are usually repeats but may differ in a detail not shown here. Equal values may be shown once. Read-outs that look alike come from different tables or passages of the source.
# Columns and labels:
# [1] = Plasma pharmacokinetics in infected vervet monkeys (HPLC-MS/MS); format: in vivo, vervet monkey
# From the text: Parasitaemia post-infection was monitored daily, using ear-prick capillary blood, through the completion of DB868 and DB829 treatment. Following the last drug dose (LDD), blood and CSF samples were examined for trypanosomes at 1, 4, 7, and 14 days to determine the end of treatment (EoT) response; monkeys which were positive for trypanosomes in either blood or CSF at the end of this 14-day period were classified as treatment failures/not cured while those that were free of trypanosomes were classified as provisionally cured. After the 14-day EoT evaluations, parasitaemia examinations were continued twice weekly to ≥ 300 days post-LDD as described previously. Additionally, physical examinations and haematological assessments were carried out once weekly up to 28 days post-LDD, once every two weeks between 28 and 100 days post-LDD, and monthly thereafter until the end of the study as described previously. At 300 days post-LDD, monkeys were considered cured if they remained normal clinically and parasite-free in the blood and CSF. Pharmacokinetic outcomes were monitored for a minimum of 60 days post-LDD as described previously. To facilitate the collection of blood and CSF for these assessments, the monkeys were anaesthetised with an IM injection of ketamine HCl (10–15 mg/kg) and diazepam (0.5 mg/kg). Monkeys that relapsed, characterized by trypanosome recrudescence in the blood or CSF, were rescue-treated with melarsoprol. Melarsoprol (Mel B), supplied by the World Health Organization as a 3.6% (w/v) solution in propylene glycol, was administered intravenously at 3.6 mg/kg/day for 4 consecutive days.
# (§1) Plasma samples were processed for quantification of DB868 and DB829 by high performance liquid chromatography-tandem mass spectrometry (HPLC-MS/MS) as described previously. CSF samples were processed in a manner similar to that of plasma samples.
# Clinical and haematological data were analysed using Statview for Windows Version 5.0.1 (1995–1998; SAS Institute Inc., Cary, NC, USA). Repeated measures ANOVA, with Fisher’s PLSD post hoc test, was used to test the effect of trypanosome infection on haematologic parameters in comparison with respective baseline values (α = 0.05). In addition, the effects of IM DB829 and oral DB868 on these haematologic parameters in monkeys with confirmed second stage HAT were tested. Pharmacokinetic outcomes were recovered using traditional non-compartmental methods using Phoenix WinNonlin (version 6.2; Pharsight, Mountain View, CA, USA).
# [2] = tested on: T. b. rhodesiense STIB900; design: method as in PMID 19620327; conditions: read-out: in vitro IC50; cited from earlier work
# [3] = CSF DB829 concentrations in infected vervet monkeys; format: in vivo, vervet monkey; conditions: for concentration at 1 h: 5 mg/kg/day, read-out: geometric mean CSF DB829 concentration
# From the text: Parasitaemia post-infection was monitored daily, using ear-prick capillary blood, through the completion of DB868 and DB829 treatment. […] At 300 days post-LDD, monkeys were considered cured if they remained normal clinically and parasite-free in the blood and CSF. Pharmacokinetic outcomes were monitored for a minimum of 60 days post-LDD as described previously. […] Monkeys that relapsed, characterized by trypanosome recrudescence in the blood or CSF, were rescue-treated with melarsoprol.
# as §1
smiles,measurement,setting,value
"N=C(N)c1ccc(-c2ccc(-c3ccc(C(=N)N)cn3)o2)nc1 [DB829, 2,5-bis(5-amidino-2-pyridyl)furan]",half-life,"[1]; monkey, in vivo, im, 2.5 mg/kg, after 5th IM dose, Group 3 = 2.5 mg/kg × 5 consecutive days, read-out: t½ (terminal half-life) (converted)",33 days
same,Cmax,"[1]; monkey, in vivo, im, 2.5 mg/kg, plasma DB829 after 5th IM dose, Group 3 = 2.5 mg/kg × 5 consecutive days, read-out: Cmax",4200 nM
same,Tmax,"[1]; monkey, in vivo, im, 2.5 mg/kg, plasma DB829 after 5th IM dose, Group 3 = 2.5 mg/kg × 5 consecutive days, read-out: Tmax (converted)",57.6 min
same,CL/F,"[1]; monkey, in vivo, im, 5 mg/kg, after 5th IM dose, Group 1 = 5 mg/kg × 5 consecutive days, read-out: Cl/F (apparent clearance) (converted)",0.59 mL/min/kg
same,half-life,"[1]; monkey, in vivo, im, 5 mg/kg, after 5th IM dose, Group 1 = 5 mg/kg × 5 consecutive days, read-out: t½ (terminal half-life) (converted)",34 days
same,half-life,"[1]; monkey, in vivo, im, 5 mg/kg, after 5th IM dose, Group 2 = 5 mg/kg × 5 alternating days, read-out: t½ (terminal half-life) (converted)",130 days
same,Cmax,"[1]; monkey, in vivo, im, 5 mg/kg, plasma DB829 after 5th IM dose, Group 1 = 5 mg/kg × 5 consecutive days, read-out: Cmax",12000 nM
same,Tmax,"[1]; monkey, in vivo, im, 5 mg/kg, plasma DB829 after 5th IM dose, Group 1 = 5 mg/kg × 5 consecutive days, read-out: Tmax (converted)",57.6 min
same,Cmax,"[1]; monkey, in vivo, im, 5 mg/kg, plasma DB829 after 5th IM dose, Group 2 = 5 mg/kg × 5 alternating days, read-out: Cmax",16000 nM
same,Tmax,"[1]; monkey, in vivo, im, 5 mg/kg, plasma DB829 after 5th IM dose, Group 2 = 5 mg/kg × 5 alternating days, read-out: Tmax (converted)",57.6 min
same,half-life,"[1]; monkey, in vivo, im, IM DB829 consecutive-day dosing regimens, read-out: geometric mean (range) terminal half-life (t½) (converted)",38 days
same,Cmax,"[1]; monkey, in vivo, po, 3 mg/kg/day, after oral DB868 3 mg/kg/day, read-out: Geometric mean Cmax (range) of DB829",85 nM
same,Cmax,"[1]; monkey, in vivo, po, 3 mg/kg/day, plasma DB829 after the 10th oral dose of DB868, 3 mg/kg × 10 days, read-out: Cmax",60 nM
same,Cmax,"[1]; monkey, in vivo, po, 10 mg/kg/day, after oral DB868 10 mg/kg/day, read-out: Geometric mean Cmax (range) of DB829",270 nM
same,Cmax,"[1]; monkey, in vivo, po, 10 mg/kg/day, plasma DB829 after the 10th oral dose of DB868, 10 mg/kg × 10 days, read-out: Cmax",410 nM
same,half-life,"[1]; monkey, in vivo, po, 10 mg/kg/day, plasma DB829 after the 10th oral dose of DB868, 10 mg/kg × 10 days, read-out: t½ (converted)",120 days
same,Cmax,"[1]; monkey, in vivo, po, 20 mg/kg/day, after oral DB868 20 mg/kg/day, read-out: Geometric mean Cmax (range) of DB829",530 nM
same,Cmax,"[1]; monkey, in vivo, po, 20 mg/kg/day, plasma DB829 after the 10th oral dose of DB868, 20 mg/kg × 10 days, read-out: Cmax",460 nM
same,Tmax,"[1]; monkey, in vivo, po, after oral DB868, three treatment groups, read-out: Median plasma Tmax for DB829 (converted)",475 min
same,Tmax,"[1]; monkey, in vivo, po, after oral DB868, three treatment groups, read-out: range of plasma Tmax for DB829",57.6 to 2880 min
same,half-life,"[1]; monkey, in vivo, po, given IM or orally as DB868, range over monkeys, read-out: half-life for DB829",33 to 180 days
same,Cmax,"[1]; plasma DB829 after 5th IM dose, Group 1 = 5 mg/kg × 5 consecutive days, 5 mg/kg, read-out: Cmax",15000 nM
same,Cmax,"[1]; plasma DB829 after 5th IM dose, Group 2 = 5 mg/kg × 5 alternating days, 5 mg/kg, read-out: Cmax",8900 nM
same,Cmax,"[1]; plasma DB829 after 5th IM dose, Group 3 = 2.5 mg/kg × 5 consecutive days, 2.5 mg/kg, read-out: Cmax",5900 nM
same,Tmax,"[1]; plasma DB829 after the 10th oral dose of DB868, 3 mg/kg × 10 days",475 min
same,AUC0–63,"[1]; plasma DB829 after the 10th oral dose of DB868, 3 mg/kg × 10 days, 0 to 63 days",1800 nmol·days/L
same,Cmax,"[1]; plasma DB829 after the 10th oral dose of DB868, 3 mg/kg × 10 days, read-out: Cmax",110 nM
same,Cmax,"[1]; plasma DB829 after the 10th oral dose of DB868, 10 mg/kg × 10 days, read-out: Cmax",340 nM
same,Cmax,"[1]; plasma DB829 after the 10th oral dose of DB868, 20 mg/kg × 10 days, read-out: Cmax",630 nM and 500 nM
same,IC50,[2],14 nM
same,CSF DB829 concentration,"[3]; IM 2.5 mg/kg/day consecutive-day dose group, limit of quantification 5 nmol/L",< 5 nmol/L
same,geometric mean CSF DB829 concentration,"[3]; IM 5 mg/kg/day alternate-day dose group, 1 h post-LDD",~7.3 nmol/L
same,CSF DB829 concentration,"[3]; IM 5 mg/kg/day consecutive-day dose group, by 28 days post-LDD",below the limit of quantification
same,time DB829 CSF concentrations maintained above 5 nmol/L,[3]; IM 5 mg/kg/day regimens,2–28 days post-LDD
same,concentration at 1 h,"[3]; monkey, CSF, intramuscular, IM 5 mg/kg/day alternate-day dose group, 1 h post-LDD",7.3 nM
same,concentration at 1 h,"[3]; monkey, CSF, intramuscular, IM 5 mg/kg/day consecutive-day dose group, 1 h post-LDD",14 nM
same,Kp at 1 h,"[3]; monkey, CSF, intramuscular, IM 5 mg/kg/day, either regimen, 1 h post-LDD, read-out: CSF concentration as share of total (bound + unbound) plasma concentration",~0.001
same,CSF DB829 concentration,[3]; monkeys treated with oral DB868,not quantifiable

# Source: paper PMC4318582, “Chemotherapy of Second Stage Human African Trypanosomiasis: Comparison between the Parenteral Diamidine DB829 and Its Oral Prodrug DB868 in Vervet Monkeys” (PLoS Neglected Tropical Diseases, 2015)
